“And” between values parts separate entries of the source, which are not always exact repeats. Equal values may be shown once.
Biological target: Gag-Pol polyprotein (Human immunodeficiency virus type 1 group M subtype B (isolate HXB2), UniProt P04585)
Experiment: Inhibition Assay
From the text: Inhibition assay using HIV-1 integrase.

For `O=C(NCc1ccc(Cl)c(Cl)c1)C1C(=O)C(=O)N(CC2CC2)C1c1cccc2c1OCO2` (centres undefined) [Integrase inhibitor, 2{1,1,1}], the IC50 was 0.05 µM and 0.039 µM.
In the case of `CCOc1ccccc1C1C(C(=O)NCc2ccc(Cl)c(Cl)c2)C(=O)C(=O)N1CCCCC(NC(C)=O)C(=O)O` (centres undefined) [Integrase inhibitor, 2{1,2,2}], the IC50 is reported as 0.057 µM and 0.026 µM.
For `CC(=O)NC(CCCCN1C(=O)C(=O)C(C(=O)NCc2ccc(Cl)c(Cl)c2)C1c1cccc2c1OCO2)C(=O)O` (centres undefined) [Integrase inhibitor, 2{1,1,2}], the IC50 was 0.067 µM and 0.029 µM.
With `CCOCCCN1C(=O)C(=O)C(C(=O)NCc2ccc(Cl)c(Cl)c2)C1c1ccccc1Oc1ccccc1` (centres undefined) [Integrase inhibitor, 2{1,4,4}] the IC50 was 0.09 µM and 0.08 µM.
`COc1ccc(CNC(=O)C2C(=O)C(=O)N(CC3CC3)C2c2ccccc2C(F)(F)F)cc1` (centres undefined) [Integrase inhibitor, 2{3,5,1}] was tested, and the IC50 was 12 µM and 10.3 µM.

Point of comparison: `NCC1CC1` [Integrase inhibitor, R3{1}], IC50 3.64 µM. Against it:
- CCOCCN [Integrase inhibitor, R3{5}] — within 1.5-fold, 4.13 µM
- NCc1ccc(F)cc1 [Integrase inhibitor, R1{2}] — within 1.5-fold, 4.05 µM
- CN [Integrase inhibitor, R3{3}] — within 1.5-fold, 2.7 µM
- NCc1cc(Cl)cc(Cl)c1 [Integrase inhibitor, R1{4}] — within 1.5-fold, 2.47 µM
- COc1ccc(CN)cc1 — within 1.5-fold, 3.92 µM
- CCOCCCN [Integrase inhibitor, R3{4}] — 1.7-fold lower, 2.11 µM
- O=Cc1ccccc1OCC(=O)O [Integrase inhibitor, R2{3}] — 1.8-fold lower, 2.03 µM
- O=Cc1ccccc1OCc1ccccc1 [Integrase inhibitor, R2{4}] — 2.1-fold lower, 1.75 µM
- CC(=O)N[C@H](CCCCN)C(=O)O [Integrase inhibitor, R3{2}] — 2-fold lower, 1.84 µM
- NCc1ccc(Cl)c(Cl)c1 [Integrase inhibitor, R1{1}] — 2.7-fold lower, 1.34 µM
- CCOc1ccccc1C=O [Integrase inhibitor, R2{2}] — 3.6-fold lower, 1.02 µM
- O=Cc1ccccc1C(F)(F)F [Integrase inhibitor, R2{5}] — 2.2-fold higher, 7.86 µM
- O=Cc1cccc2c1OCO2 [Integrase inhibitor, R2{1}] — within 1.5-fold, 3.05 µM

From BindingDB's records for doi:10.1021/cc9001026 (Bristol-Myers Squibb, 2010)
